These results are taken from patent publication US20150232954A1, “Method for quantifying different viral forms of the DNA of the HIV virus” (UNIVERSITE PARIS DIDEROT - PARIS 7, priority 2012, published 2015).

Structures are written as SMILES.

The test system of experiment [1] is maturation reaction. In words: Confirmation of the effect on maturation with a radiolabeled probe derived from the PCR. To be noted: 5 μM inhibitor. Format: cell-based, HIV-1. The text has this:
The different effects of each of the inhibitors on the maturation reaction were confirmed with the aid of a radiolabeled probe derived from the PCR.

The test system of experiment [2] is maturation reaction (3′-processing). The experiment can be described thus: Effect of INSTI on the maturation reaction (3′-processing) in infected cells (Example 4). Format: cell-based, HIV-1. To be noted: for effect on the maturation step: 500 nM inhibitor; for maturation efficacy: 2.5 μM inhibitor. The text has this: Quantification of 3′ non-mature and mature linear forms of the DNA of HIV-1 by LM-PCR. The strategy used in order to quantify the linear viral DNA is based on the ligation of a linking oligonucleotide (or “linker”) at the ends of the viral ends followed by two PCRs according to the protocol of Pierson et al. (Pierson et al. (2002) Journal of Virology 17:8518-8531). Major improvements have been made in order to implement an approach of quantitative PCR type.

The test system of experiment [3] is maturation reaction in primary CD4+ T lymphocytes infected with Δenv virus of wild-type. In words: Efficacy of maturation during infection of primary CD4+ T lymphocytes. The class given is cell-based, HIV-1. The following applies: 5 μM inhibitor. The text has this:
In addition, the accumulation kinetics of the 1-LTR and 2-LTR bands are similar in the primary cells with respect to cells of cellular line.

Experiment [4] relates to viral integration. The experiment can be described thus: Inhibition of viral integration by INSTI (Example 4). The class given is cell-based, HIV-1. To be noted: for IC50: Human immunodeficiency virus 1, read-out: IC50 for inhibition of viral integration.
Experiment [5] deals with 2-LTR or 1-LTR bands of HIV-1 viral DNA. The experiment can be described thus: Accumulation of 2-LTR and 1-LTR bands with INSTI (Example 4). Format: cell-based. To be noted: for 2 LTR bands as share of the viral forms: 500 nM to 5 μM, 48 h post-infection; for accumulation of 2-LTR or 1-LTR bands on varying the concentration: from 500 nM to 5 μM. How it is done: Quantification of the 1-LTR bands. The quantifications were carried out by real-time PCR on a Light Cycler apparatus (Roche Diagnostics, Meylan, France) with the aid of the second derivative method provided with the Light Cycler quantification software, version 3.5 (Roche Diagnostics). The number of DNA copies of the 1-LTR bands was determined by quantifying the viral molecules with the aid of primers which hybridize to the genes gag and env, as well as to hybridization probes. The reaction mixtures contain 1× LightCycler FastStart DNA master HybProbes buffer (Roche Diagnostics reference 12239272001), 4 mM MgCl2, 300 nM of 1-LTR LA1 primers (5′-[…]-3′, SEQ ID NO: 1) and 1-LTR LA16 (5′-[…]-3′, SEQ ID NO: 2) and 200 nM of LTR FL* hybridization probes (5′-[…]^a-3′, SEQ ID NO: 3) and LTR LC*(5′-[…]^b-3′, SEQ ID NO: 4) (^aFluorescein at the 3′ end; ^bLC red 640 at the 5′ end and phosphorylated at the 3′ end) in a final volume of 20 μl. The conditions of the PCR cycles for the quantification of the 1-LTR bands are the following: denaturation step for 8 min followed by 40 cycles (95° C. for 10 s, 60° C. for 10 s, and 72° C. for 25 s). The number of copies of 1-LTR bands was determined by reference to a calibration curve prepared by amplifying quantities ranging from 100 to 10^5 copies of p1-LTR.
(§1) The bands at 2-LTR are amplified by the primers flanking the LTR-LTR junction (HIVF and HIVR1 primers) (Brussel & Sonigo (2003) Journal of Virology 77:10119-10124). The viral DNA integrated is quantified by Alu-PCR (Brussel & Sonigo (2003) Journal of Virology 77:10119-10124). The U5-gag sequences, the 2-LTR junctions as well as the specific amplification of the integrated DNA are amplified in duplicate starting from 1/50 of the extraction of cell DNA. The number of copies is normalized per μg of DNA by measuring the quantity of β-globin gene in 1/50 of the DNA extract (Table 1).

Experiment [6] has as its target T1, recombinant integrase (Human immunodeficiency virus type 1 group M subtype B, UniProt P12497).
T1 construct: with the aid of recombinant integrase
In words: In vitro maturation reaction with recombinant integrase. The class given is biochemical, HIV-1.

Experiment [7] relates to maturation (3′-processing) of the linear viral DNA of HIV-1 in CEM cells. In words: Quantification of mature and non-mature linear viral DNA by LM-PCR after infection of CEM cells. Format: cell-based.
Experiment [8] relates to integration of HIV-1 viral DNA in infected cells. The experiment can be described thus: Quantification of integrated viral DNA by Alu-PCR in infected cells. Format: cell-based. The following applies: WT virus, 500 nM raltegravir, FIG. 3D.
Description: as §1

As to `COc1cc2c(cc1Cc1cccc(Cl)c1F)c(=O)c(C(=O)O)cn2[C@H](CO)C(C)C` [EVG, elvitegravir], the effect on maturation result in experiment [1] is given as “significantly inhibit maturation”. Further, in experiment [2], the “effect on the maturation step” value was “not affected” and the maturation efficacy result is “approximately 40%”. Also, the “efficacy of the maturation reaction influenced or not” value in experiment [3] is “influenced”. In addition, in experiment [4], the “lowest concentration completely inhibiting viral integration” value was 500 nM and the IC50 is 2 nM. In addition, in experiment [5], the “2 LTR bands as share of the viral forms” value is around 40% and the “accumulation of 2-LTR or 1-LTR bands on varying the concentration” value is “does not lead to an increase”.
On to `C[C@@H]1CCO[C@H]2Cn3cc(C(=O)NCc4ccc(F)cc4F)c(=O)c(O)c3C(=O)N12` [DTG, dolutegravir], for which the effect on maturation result in experiment [1] is “significantly inhibit maturation”. In addition, the IC50 in experiment [6] came out at 2000 nM. In addition, in experiment [2], the “effect on the maturation step” value is “not affected” and the maturation efficacy entry was “approximately 40%”. In experiment [3], the “efficacy of the maturation reaction influenced or not” value was “influenced”. Also, in experiment [4], the “lowest concentration completely inhibiting viral integration” value is on record as 500 nM and the IC50 was 2 nM. In addition, in experiment [5], the “2 LTR bands as share of the viral forms” value is given as around 40% and the “accumulation of 2-LTR or 1-LTR bands on varying the concentration” value is reported as “does not lead to an increase”.
As for `Cc1nnc(C(=O)NC(C)(C)c2nc(C(=O)NCc3ccc(F)cc3)c(O)c(=O)n2C)o1` [RAL, raltegravir], in experiment [2], the “effect on the maturation step” value is on record as “not affected”. Moreover, in experiment [2] (5 μM inhibitor), the “maturation activity / maturation efficacy” value is 80%. Moreover, in experiment [7] (500 nM raltegravir, achieved 8 hours post-infection), the “quantity of linear viral DNA (mature and non-mature), compared with WT” value is given as “the same”. In experiment [7] (WT virus, 500 nM raltegravir), the “quantity of mature viral DNA with or without raltegravir” value is on record as “similar”. For the same compound, the “efficacy of the maturation reaction influenced or not” value in experiment [3] was “not”. In experiment [4], the “lowest concentration completely inhibiting viral integration” value is recorded as 500 nM and the IC50 was determined as 8 nM. The “detection of integrated viral DNA” value in experiment [8] is recorded as “inhibition of the detection of integrated viral DNA”.
Regarding `COc1cc(/C=C/c2ccc3ccc(C(=O)O)c(O)c3n2)cc(O)c1O` [FZ41], the “percentage of mature viral DNA” value in experiment [7] (wild-type integrase virus, 20 μM FZ41 at the time of infection, 20 hours post-infection (75% without compound)) is given as 28%.
